In patent publication US10039846B2, “Compositions targeting bradykinin receptor B1 for medical imaging of cancer and other disorders” (BRITISH COLUMBIA CANCER AGENCY BRANCH, priority 2012, dated 2018):
“And” between values parts separate entries of the source, which are not always exact repeats. Equal entries are not always repeated. Where two headings read alike, the source gives them in different places. Blank lines part the entries; values can stand above or below the compound they belong to. Where a SMILES comes first, the peptide text is derived from it. [ ]: non-standard residue; d: D form. The star is where a group is joined. DOTA = O=C(O)CN1CCN(CC(=O)O)CCN(CC(=O)*)CCN(CC(=O)O)CC1; Hyp = O=C(O)[C@@H]1C[C@@H](O)CN1; Cha = N[C@@H](CC1CCCCC1)C(=O)O; PEG2 = NCCOCCOCCC(=O)O

Columns and labels:
[1] = target: T1, B1R (Homo sapiens, UniProt P46663); experiment: Competitive binding assay with 3H radioligand on CHO-K1 cell membranes over-expressing human B1R; set-up: purchased Perkin Elmer Inc., Waltham, Mass; ES-091-M400UA; host or cells: CHO-K1 cells over-expressing human B1R (membrane preparation)
T1 sequence (P46663 1-353): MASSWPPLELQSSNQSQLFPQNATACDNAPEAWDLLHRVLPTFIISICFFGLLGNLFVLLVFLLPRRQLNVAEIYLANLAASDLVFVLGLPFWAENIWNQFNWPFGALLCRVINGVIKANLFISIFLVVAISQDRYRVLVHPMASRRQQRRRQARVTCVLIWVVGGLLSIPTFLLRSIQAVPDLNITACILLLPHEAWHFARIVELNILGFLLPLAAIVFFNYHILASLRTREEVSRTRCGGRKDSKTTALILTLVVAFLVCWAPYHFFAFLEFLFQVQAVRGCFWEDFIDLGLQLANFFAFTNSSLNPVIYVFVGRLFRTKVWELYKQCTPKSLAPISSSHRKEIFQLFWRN
Method: The ability of the peptide and small molecule B1R targeting compounds to bind to B1R was assessed in competitive binding assay as described below.
Preparation of Cell Membranes: Ready to use cell membranes (12.5 μg/μL) from CHO-K1 cells over-expressing human B1R were obtained from Perkin Elmer Inc., Waltham, Mass. (cat. no. ES-091-M400UA). Binding using cell membranes from HEK293T::GFP::hB1R (from Example 3) was also tested. In the latter case, the membranes were prepared as follows: 90% confluent cells grown in large flask, T225, were detached and pelleted in a 50 mL conical tube using centrifuge at 1,200 rpm for 5 minutes. Afterward, cells were re-suspended in 20-30 mL of cold 50 mM Tris-HCl pH 7.4. Ice cold cells were disrupted for 15 seconds at 15,000 rpm with a Polytron PT3100 (Kinematica AG, Lucerne, Switzerland). The solution was aliquoted and centrifuged at 4° C. at 17,000×g for 30 minutes. The supernatant was discarded, and then the pellet was dissolved in 1-2 mL of cold salt solution containing 50 mM Tris-HCl pH 7.4 and 100 mM NaCl and incubated for 1 hour on ice. The cell membranes were pelleted by centrifugation at 4° C. at 17,000×g for 30 minutes and resuspended in 200-600 μL of 50 mM Tris-HCl pH 7.4. The cell membrane extract was stored at −80° C. Protein concentration was determined by Bradford assay (cat. no. R1271, Fermentas, Thermo Fisher Scientific, Burlington, ON). 50 ug of cell membranes per well was used for the competitive binding assay. […] Radio-labelled control was H-3 labelled [Leu^9,des-Arg^10] kallidin obtained either from American Radiolabelled Chemicals Inc, St. Louis, Mo.
Competitive Binding Assays: Assays were performed using 96-well MultiScreenHTS with glass fiber filter and PVDF support obtained from Millipore Corp, Billerica, Mass. (cat. no. MSFB N6B, lot no. R8AN42424). Wells of the MultiScreen plate were pre-soaked with 0.5% of cold Poly(ethyleneimine) (PEI) (cat. no. P3143, Sigma-Aldrich, St. Louis, Mo.) for 30 minutes. Afterward, wells were washed once with 50 mM of Tris-HCl pH 7.4. Total volume per wells was 200 μL. A fixed concentration of the hot radioligand (1, 3, 5 or 12.5 nM depending on the radioligand; see Table 5) was incubated with progressively higher concentrations (10^−11 to 10^−4 M) of the non-radioactive competitor of interest in the presence of cell membranes (50 μg/well) and the assay buffer (50 mM Tris-HCl pH 7.4, 5 mM MgCl2). The MultiScreen plate was then incubated at 27° C. for 15 minutes with agitation at 300 rpm. The assay was stopped by suctioning the reaction solution through the bottom PVDF membrane filter and discarded. The membranes were washed 7× with 150 μL/well of cold 50 mM Tris-HCl pH 7.4. Radioactivity was counted using 1450 MicroBeta TriLux—Microplate Scintillation and Luminescence Counter (Perkin Elmer Inc., Shelton, Conn.).

[2] = in vivo; conditions: NODSCID IL2RKO, mouse, iv, total radioactivity
Method: Tumour Implantation: Imaging and biodistribution experiments were performed using NODSCID IL2RKO mice. Each cage, equipped with enrichments, contained three or four mice. The mice were maintained and the experiments were conducted in accordance with the guidelines established by Canadian Council on Animal Care and approved by Animal Ethics Committee of the University of British Columbia. Mice were housed under pathogen-free conditions and kept on twelve hour light and twelve hour dark cycle in the Animal Research Centre, British Columbia Cancer Research Centre, Vancouver, Canada.
Mice were anesthetised briefly with 2.5% isoflurane in 2.0 L/min of oxygen during cell implantation. After wiping the skin surrounding the injection site with an alcohol prep pad, a 31-Gauge needle was used to inject 10^7 HEK293T::GFP and HEK293T::hB1R cells in matrigel (1:1) on the back of the mouse. Imaging was performed once the tumour lump was visible. Tumour size was measured by CT and calculated using the ellipsoid formula: V^3mm=width×length×thickness×0.524.
PET/CT Imaging: Each tumour-bearing mouse was injected with ˜3.7 MBq of Ga-68 labelled Peptide 3 through the tail vein. The mice were imaged using the BC Cancer Agency Inveon microPET/CT scanner that has a 1.3 mm spatial resolution and a high sensitivity. Briefly, a localization CT scan was first obtained using 3 overlapping positions to cover the entire mouse. This CT scan was used for attenuation and scatter correction after segmentation for reconstructing the PET images. A dynamic acquisition was then performed for 60 minutes, with the mouse under isoflurane sedation. The animals were kept warm by a monitoring system with an integrated heating pad and physiological acquisition system. At the end of the acquisition, the mice were euthanized, and major organs were collected, weighed, and counted to determine the % injected dose per gram of tissue (% ID/g). The images were reconstructed using OSEM/3DMAP iterative reconstruction, and representative images of Ga-68 labelled Peptide 3 at 1 h post-injection are shown in FIG. 4.

[3] = system: HEK-293 and HEK-293/BKRB1 tumours; experiment: Biodistribution of Ga-68 Peptide 12 in tumour-bearing mice; assay type: in vivo, mouse; set-up: Biodistribution Spleen Average / Biodistribution Liver Average / Biodistribution Adrenal glands Average / Biodistribution Kidney Average / Biodistribution Muscle Average / Biodistribution Brain Average / Biodistribution Blood Average / Biodistribution Fat Average: unit not given here; conditions: 1 h post-injection
From the text: Peptide 12 is an […] version of Peptide 3 that was developed by substituting the C-terminal Leu residue with a D-Phe residue.

[4] = average of individual competitive binding assays, read-out: Affinity Ki (nM) Average
[5] = Hot 12.5 nM BK-AG-ARC, CHO-K1 membranes, individual assays, read-out: Ki

Structure (SMILES): Cc1ccc(S(=O)(=O)N2c3ccccc3NC(=O)[C@H]2CC(=O)Nc2ccc(N3CCN(CCF)CC3)cc2)cc1 [Compound 7]
Ki [1, 5]: 113 nM and 39.5 nM and 260 nM | Ki ([1]; Hot 12.5 nM BK-ANT-ARC, CHO-K1 membranes, individual assays, read-out: Ki): 20.7 nM | Ki [1, 4]: 108 nM

Structure (SMILES): Cc1ccc(S(=O)(=O)N2c3ccccc3NC(=O)[C@H]2CC(=O)NCCc2ccc(NCCF)cc2)cc1 [Compound 6]
Ki [1, 5]: 1010 nM | Ki [1, 4]: 1010 nM

Other lines, results leading:

Ki ([1]; Hot 4.5 nM BK-ANT-ARC, CHO-K1 membranes, individual assays, read-out: Ki): 0.81 nM | Ki [1, 4]: 0.81 nM
Structure (SMILES): COc1cc(C)c(S(=O)(=O)N(C)CCOCC(=O)N2CCC(C3CCN(CCF)CC3)CC2)c(C)c1 [Compound 15]

tissue uptake at 1 h ([2]; 3.7 MBq, % ID/g Blood Average): 0.26 %ID/g | tissue uptake at 1 h ([2]; 3.7 MBq, % ID/g Bone Average): 0.34 %ID/g | tissue uptake at 1 h ([2]; 3.7 MBq, % ID/g Brain Average): 0.03 %ID/g | tissue uptake at 1 h ([2]; 3.7 MBq, % ID/g Colon Average): 0.34 %ID/g | tissue uptake at 1 h ([2]; 3.7 MBq, % ID/g Fat Average): 0.12 %ID/g | tissue uptake at 1 h ([2]; 3.7 MBq, % ID/g Heart Average): 0.19 %ID/g | tissue uptake at 1 h ([2]; 3.7 MBq, % ID/g LEFT Tumour (B1R) Average): 1.32 %ID/g | tissue uptake at 1 h ([2]; 3.7 MBq, % ID/g Left Kidney Average): 5.14 %ID/g | tissue uptake at 1 h ([2]; 3.7 MBq, % ID/g Liver Average): 0.16 %ID/g | tissue uptake at 1 h ([2]; 3.7 MBq, % ID/g Lungs Average): 0.43 %ID/g | tissue uptake at 1 h ([2]; 3.7 MBq, % ID/g Muscle Average): 0.11 %ID/g | tissue uptake at 1 h ([2]; 3.7 MBq, % ID/g Pancreas Average): 0.13 %ID/g | tissue uptake at 1 h ([2]; 3.7 MBq, % ID/g Plasma Average): 0.77 %ID/g | tissue uptake at 1 h ([2]; 3.7 MBq, % ID/g RIGHT Tumour (GFP) Average): 0.23 %ID/g | tissue uptake at 1 h ([2]; 3.7 MBq, % ID/g Right Kidney Average): 6.79 %ID/g | tissue uptake at 1 h ([2]; 3.7 MBq, % ID/g Small Intestine Average): 0.2 %ID/g | tissue uptake at 1 h ([2]; 3.7 MBq, % ID/g Spleen Average): 0.11 %ID/g | tissue uptake at 1 h ([2]; 3.7 MBq, % ID/g Stomach Average): 0.11 %ID/g | tissue uptake at 1 h ([2]; % ID/g Tail Average): 0.45 %ID/g
Structure (SMILES): CC(C)C[C@H](NC(=O)[C@@H]1CCCN1C(=O)[C@H](CO)NC(=O)[C@H](CC1CCCCC1)NC(=O)CNC(=O)[C@@H]1C[C@@H](O)CN1C(=O)[C@@H]1CCCN1C(=O)[C@H](CCCNC(=N)N)NC(=O)[C@H](CCCCN)NC(=O)CCOCCOCCNC(=O)CN1CCN(CC(=O)O)CCN(CC(=O)O)CCN(CC(=O)O)CC1)C(=O)O [Ga-68 Peptide 3, ^68Ga-DOTA-PEG2-Lys-Arg-Pro-Hyp-Gly-Cha-Ser-Pro-Leu, metal not drawn] ({DOTA-PEG2}-KRP[Hyp]G[Cha]SPL-OH)

Ki [1, 5]: 6920 nM | Ki [1, 4]: 6920 nM
Structure (SMILES): Cc1ccc(S(=O)(=O)N2c3ccccc3NC(=O)[C@H]2CC(=O)NCc2ccc(NCCF)cc2)cc1 [Compound 8]

Biodistribution Adrenal glands Average ([3]; Adrenal glands): 0.001 | Biodistribution Blood Average ([3]; Blood): 0.039 | Biodistribution Bone Average ([3]; Bone): 0.093 %ID/g | Biodistribution Brain Average ([3]; Brain): 0.009 | Biodistribution Fat Average ([3]; Fat): 0.039 | Biodistribution Heart Average ([3]; Heart): 0.15 %ID/g | Biodistribution Kidney Average ([3]; Kidney): 6.436 | Biodistribution Large intestine Average ([3]; Large intestine): 0.149 %ID/g | Biodistribution Left tumour Average ([3]; Left tumour): 0.194 %ID/g | Biodistribution Liver Average ([3]; Liver): 0.129 | Biodistribution Lungs Average ([3]; Lungs): 0.8 %ID/g | Biodistribution Muscle Average ([3]; Muscle): 0.056 | Biodistribution Pancreas Average ([3]; Pancreas): 0.069 | Biodistribution Plasma Average ([3]; Plasma): 0.473 %ID/g | Biodistribution Right tumour Average ([3]; Right tumour, in %ID/g): 7.909 | Biodistribution Seminal glands Average ([3]; Seminal glands): 0.23 %ID/g | Biodistribution Skin Average ([3]; Skin): 0.223 %ID/g | Biodistribution Small intestine Average ([3]; Small intestine): 0.208 %ID/g | Biodistribution Spleen Average ([3]; Spleen): 0.127 | Biodistribution Tail Average ([3]; Tail): 0.226 %ID/g | Biodistribution Testes Average ([3]; Testes): 0.132 %ID/g
Structure (SMILES): N=C(N)NCCC[C@H](NC(=O)[C@H](CCCCN)NC(=O)CCCCCNC(=O)CN1CCN(CC(=O)O)CCN(CC(=O)O)CCN(CC(=O)O)CC1)C(=O)N1CCC[C@H]1C(=O)N1C[C@H](O)C[C@H]1C(=O)NCC(=O)N[C@@H](CC1CCCCC1)C(=O)N[C@@H](CO)C(=O)N1CCC[C@H]1C(=O)N[C@H](Cc1ccccc1)C(=O)O [Ga-68 Peptide 12, ^68Ga-DOTA-Ahx-Lys-Arg-Pro-Hyp-Gly-Cha-Ser-Pro-(D-Phe), metal not drawn]
